Results from ChEMBL document CHEMBL3430912, “GSK Tres Cantos Anti-Kinetoplastid Screening (TCAKS) Data”.

Legend:
[1] = tested on: Leishmania donovani; assay: (§1) GSK_TCAKS: pIC50 Leishmania donovani Imaging: THP-1 Host Macrophages. Assay plates (384-well) were prepared by adding 250nL of compound to each well. For single shot assay, the final compound concentration was 5 uM. […] Automated image analysis was performed with a script developed on Acapella High Content Imaging and Analysis Software (PerkinElmer). Output: THP-1 cell count were reported for each well.; format: functional, organism-based, Homo sapiens
[2] = tested on: NIH3T3; assay: GSK_TCAKS: pIC50 NIH 3T3 cell line viability assay using luminiscence. Tissue culture surface treated assay plates (1536-well) were used. […] The 100% cells survival control was determined exposing the host-cells to a 0.5% DMSO concentration, whereas the 100% toxicity control was achieved by seeding the cells in presence of Amphotericin B at 50uM. Plates were incubated for four days at 37C, 5% CO2. The assay readout was developed by addition of 5uL of CellTiter-Glo Reagent following the manufacturer's instructions. Luminiscence was measured using a ViewLux.; format: functional, cell-based; conditions: Mus musculus, NIH3T3, 96 h
[3] = tested on: Trypanosoma brucei brucei; assay: GSK_TCAKS: pIC50 Trypanosoma brucei viability assay using luminiscence. Assay plates (1536-well) were prepared. T. brucei cultures were harvested and counted in a CASY cell counter. A parasite suspension was prepared at a final concentration of 5 * 10^4 cells/mL in complete HMI9 medium and 6uL was dispensed to all wells containing compounds using a Multidrop Combi dispenser. 6uL of HMI9 media with 0.4% DMSO were dispensed to control columns. Plates were incubated for 24 h at 37C, 5% CO2 then tempered for 10 min at room temperature. ATP content was quantified by adding 4 uL of CellTiter-Glo Reagent (Promega) according to the manufacturer's instructions. Luminescence was measured using a ViewLux.; format: functional, organism-based; conditions: Lister 427, CASY
[4] = GSK_TCAKS: pIC50 HepG2 human cell line viability assay using luminiscence. […] Seeding density was checked to ensure that new mono-layers were not more than 50% confluent at the time of harvesting. Cell suspension was added to 500 mL of the same medium at a final density of 1.2 * 10^5 cells/mL. This cell suspension was dispensed (25 uL, 3000 cells per well) into 384-well clear-bottom plates using a Multidrop Combi dispenser. Prior to addition of the cell suspension, the screening compounds (250 nL) were pre-dispensed into the plates with an Echo liquid handler. Plates were incubated for 48 h at 37C, 5% CO2. After incubation, plates equilibrated at room temperature for 30 min before proceeding to develop the luminescent signal. The signal developer, CellTiter-Glo Reagent, was allowed to equilibrate at room temperature for 30 min and added to the plates (25uL per well) using a Multidrop Combi dispenser. Plates were left for 10 min at room temperature for stabilization and then read using a ViewLux.; format: toxicity, cell-based
[5] = tested on: Leishmania donovani; assay: as §1, with “Amastigotes/Macrophages.” for “THP-1 Host Macrophages.”, “Average number of amastigotes per macrophage” for “THP-1”, “cell” for “cell count”; format: functional, organism-based, Homo sapiens; conditions: THP-1
[6] = tested on: Leishmania donovani; assay: GSK_TCAKS: pIC50 Leishmania donovani viability assay using fluorescence intensity. Assay plates (1536-well) were prepared by adding 30nL per well of compound. For single shot assay, the final compound concentration was 5uM. […] Briefly, eGFP LdBOB axenic amastigotes were harvested, fixed and counted in a CASY cell counter (Roche-Applied Science). A final concentration of 1.5 * 10^5 cells per well were prepared in amastigote media containing 500 U/mL penicillin/streptomycin (Invitrogen) and 6uL was dispensed to each experimental well using a Multidrop Combi dispenser (Thermo Scientific). 6uL of assay media was dispensed to control columns used as reference for 100% compound response. Following incubation for 72 h at 37C, 5% CO2, 2 uL of resazurin was added to each well at a final concentration of 0.5 mM in phosphate buffered saline (PBS) with IGEPAL (Sigma-Aldrich), 0.05% (v/v).; format: functional, organism-based
[7] = tested on: Trypanosoma cruzi; assay: (§2) GSK_TCAKS: pIC50 H2C9 Imaging: H9c2 Host Cardiomyocytes. […] Cells were then washed once with PBS before infection. T. cruzi trypomastigotes, collected at days 5 to 8 after infection from LLC-MK2 parasite infected cultures, were allowed to swim out for 4h at 37C from a centrifuged pellet (2,500 rpm/10 min/room temperature). Trypomastigotes were then collected and counted in a CASY Cell Counter. Trypomastigotes, in supplemented DMEM, were added to H9c2 cultures in a multiplicity of infection of 1 and incubated for 18 h. Cells were washed once with PBS before incubation of the infected H9c2 monolayer with trypsin (Life-Technologies) to detach cells from the flask. Cells were counted in a CASY Cell Counter using a 150 um capillary and their density set at 5 * 10^4 cells per mL in supplemented assay DMEM. Infected H9c2 were dispensed into 384-well poly-lysine coated assay plates at 50uL per well using a Multidrop Combi dispenser. After seeding them, the plates were incubated at 37C, 5% CO2 for 72h. Cultures were then fixed and stained by addition of 50 uL of a solution containing 8% formaldehyde and 4 uM DRAQ5 DNA dye (BioStatus, UK) per well. […] Five images were collected per well for reliable statistical analysis. Automated image analysis was performed with a script developed on Acapella High Content Imaging and Analysis Software (PerkinElmer). Output: Number of H9c2 Host Cardiomyocytes nuclei to determine drug-related cytotoxicity.; format: functional, organism-based, Rattus norvegicus; conditions: H9c2, 4 h
[8] = tested on: Trypanosoma cruzi; assay: as §2, with “Trypanosoma cruzi” for “H2C9”, “Infected Cells.” for “H9c2 Host Cardiomyocytes.”, “percentage” for “Number”, “infected cells per well as a second infection marker.” for “H9c2 Host Cardiomyocytes nuclei to determine drug-related cytotoxicity.”; format: functional, organism-based, Rattus norvegicus; conditions: H9c2, 4 h
[9] = tested on: Trypanosoma cruzi; assay: GSK_TCAKS: pIC50 Trypanosoma cruzi viability assay using beta-GAL activity. This assay was run at single shot at 5uM compound concentration per well. The biological reagents consisted of NIH-3T3 host cells and trypomastigotes parasitic cells; both cell types were set to a 3.3 * 10^5 cells/mL dilution in assay DMEM by means of a CASY cell counter device using a 60um capillary. 6 uL of the mixture were dispensed per well (about 1 * 10^3 host-cells and 1 * 10^3 parasites) with a Multidrop Combi dispenser. […] In all wells, the percentage of DMSO never exceeded 0.5%. Plates incubated for four days at 37C, 5% CO2. The substrate used for the assay fluorescence intensity (FLINT) readout was resorufin-beta-D-galactopiranoside (Sigma-Aldrich) at 5uM per well. It was diluted in PBS supplemented with the soft detergent Igepal (Fluka).; format: functional, organism-based, Mus musculus; conditions: Tulahuen, NIH3T3
[10] = tested on: Trypanosoma brucei brucei; assay: GSK_TCAKS: pIC50 Trypanosoma brucei viability assay using fluorescence intensity. Assay plates (1536-well) were prepared by dispensing 25nL of compound solution per well using an Echo acoustic dispenser (Labcyte).; format: functional, organism-based; conditions: Lister 427, 2 h
[11] = molecular target: Sterol 14-alpha demethylase (Trypanosoma cruzi (strain CL Brener), UniProt Q7Z1V1); assay: GSK_TCAKS: pIC50 CYP51 from Trypanosoma cruzi.; format: functional
Chain of Sterol 14-alpha demethylase (Q7Z1V1 whole entry): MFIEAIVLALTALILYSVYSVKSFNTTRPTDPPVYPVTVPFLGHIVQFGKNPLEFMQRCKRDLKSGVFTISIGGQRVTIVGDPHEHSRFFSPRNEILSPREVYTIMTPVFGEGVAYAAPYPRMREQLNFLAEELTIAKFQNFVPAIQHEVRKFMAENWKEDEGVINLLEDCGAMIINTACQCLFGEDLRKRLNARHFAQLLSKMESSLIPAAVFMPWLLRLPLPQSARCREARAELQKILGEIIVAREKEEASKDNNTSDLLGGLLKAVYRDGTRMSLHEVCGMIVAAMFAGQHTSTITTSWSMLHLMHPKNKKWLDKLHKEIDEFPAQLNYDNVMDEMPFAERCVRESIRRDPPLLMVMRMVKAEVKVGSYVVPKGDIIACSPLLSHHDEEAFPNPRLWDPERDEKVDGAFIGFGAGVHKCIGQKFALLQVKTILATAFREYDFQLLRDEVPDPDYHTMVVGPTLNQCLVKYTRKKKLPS

[12] = tested on: Leishmania donovani; assay: as §1, with “Infected” for “THP-1 Host”, “Percent of infected macrophage cells” for “THP-1 cell count”; format: functional, organism-based, Homo sapiens; conditions: THP-1
[13] = tested on: Trypanosoma cruzi; assay: as §2, with “Trypanosoma cruzi” for “H2C9”, “Amastigotes/Cell.” for “H9c2 Host Cardiomyocytes.”, “number” for “Number”, “amastigotes per cell as infection level measurement.” for “H9c2 Host Cardiomyocytes nuclei to determine drug-related cytotoxicity.”; format: functional, organism-based, Rattus norvegicus; conditions: H9c2, 4 h

| Structure (SMILES) | IC50 [1] [µM] | IC50 [2] [µM] | IC50 [3] [µM] | IC50 at 48 h [4] [µM] | IC50 [5] [µM] | IC50 [6] [µM] | IC50 [7] [µM] | IC50 [8] [µM] | IC50 [9] [µM] | IC50 [10] [µM] | IC50 [11] [µM] | IC50 [12] [µM] | IC50 [13] [µM] |
| --- | --- | --- | --- | --- | --- | --- | --- | --- | --- | --- | --- | --- | --- |
| O=C(COc1ncnc2cc([N+](=O)[O-])ccc12)NC(=O)NC1CCCCC1 | > 50.1 | > 50.1 | > 39.8 | > 100 | > 50.1 | > 50.1 | > 50.1 | 1 | 1.26 | 6.31 | > 100 | > 50.1 | 0.501 |
| c1ccc2c(CCOc3nccnc3-c3ccncc3)c[nH]c2c1 | 20 | 20 | 39.8 | > 100 | 20 | 5.01 | > 50.1 | 0.158 | 0.141 | 31.6 | 0.0631 | > 50.1 | 0.158 |
| O=C(Nc1ccc(Br)c(Cl)c1)Nc1ccc2c(c1)OCO2 | > 50.1 | 15.8 | 12.6 | > 100 | > 50.1 | > 50.1 | > 50.1 | 5.01 | 2.51 | 7.94 | > 100 | > 50.1 | 2 |
| Clc1cc(Br)ccc1OCCCCn1ccnc1 | 31.6 | 15.8 | 20 | 50.1 | 6.31 | 0.126 | 25.1 | 0.251 | 0.631 | 10 | 0.0631 | 25.1 | 0.316 |
| COc1cccc(C(=O)[C@H]2C[C@@H]2CN(Cc2cccnc2)Cc2cccnc2)c1 | 39.8 | 20 | > 39.8 | > 100 | 7.94 | 0.158 | > 50.1 | 0.0631 | 0.1 | 31.6 | 0.0631 | > 50.1 | 0.0501 |
| NC(=O)c1ccc(-c2cccc(OCCN3CCN(C4CCCCC4)CC3)c2)cc1 | 31.6 | 15.8 | 15.8 | 50.1 | 10 | > 50.1 | > 50.1 | 1.58 | 1.58 | 15.8 | 39.8 | 50.1 | 0.794 |
| CCCC(=O)N(Cc1ccccn1)c1nc2ccccc2s1 | > 50.1 | > 50.1 | > 39.8 | > 100 | 10 | 7.94 | > 50.1 | 0.1 | 0.126 | 20 | 0.0501 | > 50.1 | 0.0794 |
| O=[N+]([O-])c1ccc(C2=NCCNC(c3ccccc3)=C2)cc1.[O-][Cl+3]([O-])([O-])O | 39.8 | 7.94 | > 12.6 | 50.1 | 7.94 | > 50.1 | 31.6 | 1 | 0.501 | 6.31 | 50.1 | 20 | 0.251 |
| Clc1ccc(Sc2cnccc2N2CCOCC2)cc1 | > 50.1 | > 50.1 | > 39.8 | > 100 | 10 | 7.94 | > 50.1 | 0.126 | 0.141 | 25.1 | 0.0316 | > 50.1 | 0.1 |
| N#Cc1cc(N2CCCC2=O)ccc1Sc1ccccc1CO | > 50.1 | > 50.1 | 31.6 | > 100 | > 50.1 | > 50.1 | > 50.1 | 0.398 | 0.251 | 39.8 | 20 | > 50.1 | 0.251 |
